Test results reported in patent publication US11939299B1, “4-((2-(2-(2-(4-methoxyphenyl)-4,5-diphenyl-1H-imidazol-1-yl)acetyl)hydrazono)methyl)benzoic acid as an anti-cancer compound” (KING FAISAL UNIVERSITY, priority 2023, dated 2024).

Assays:
Assay type in all cases: cell-based
[1] = test system: CCRF-CEM; assay: Percentage growth inhibition of in vitro subpanel tumor cell lines, leukemia; conditions: Homo sapiens, 0.01 mM, read-out: Percentage growth inhibition (GI %)
Method: (§1) The anticancer activity of 4-((2-(2-(2-(4-Methoxyphenyl)-4,5-diphenyl-1H-imidazol-1-yl)acetyl)hydrazono)methyl)benzoic acid was assessed against leukemia, non-small cell lung cancer, colon cancer, central nervous system (CNS) cancer, melanoma, ovarian cancer, renal cancer, prostate cancer, and breast cancer.
(§2) Percentage growth inhibition (GI %) of in vitro subpanel tumor cell lines at 0.01 mM concentration for compound 4-((2-(2-(2-(4-Methoxyphenyl)-4,5-diphenyl-1H-imidazol-1-yl)acetyl)hydrazono)methyl)benzoic acid (Labeled as AE21 in the table) can be seen in Table 1 below.

[2] = test system: MOLT-4; assay: as above; conditions: Homo sapiens; MOLT-4 (Leukemia), 0.01 mM; read-out: Percentage growth inhibition (GI %)
Method: as §1, §2

[3] = test system: RPMI-8226; assay: as above; conditions: Homo sapiens; RPMI-8226 (Leukemia), 0.01 mM; read-out: Percentage growth inhibition (GI %)
Method: as §1, §2

[4] = test system: EKVX; assay: Percentage growth inhibition of in vitro subpanel tumor cell lines, non-small cell lung cancer; conditions: Homo sapiens, 0.01 mM, read-out: Percentage growth inhibition (GI %)
Method: as §1, §2

[5] = test system: NCI-H226; assay: as above; conditions: Homo sapiens, 0.01 mM, read-out: Percentage growth inhibition (GI %)
Method: as §1, §2

[6] = test system: NCI-H23; assay: as above; conditions: Homo sapiens, 0.01 mM, read-out: Percentage growth inhibition (GI %)
Method: as §1, §2

[7] = test system: NCI-H322M; assay: as above; conditions: Homo sapiens, 0.01 mM, read-out: Percentage growth inhibition (GI %)
Method: as §1, §2

[8] = test system: NCI-H522; assay: as above; conditions: Homo sapiens, 0.01 mM, read-out: Percentage growth inhibition (GI %)
Method: as §1, §2

[9] = test system: HCT-15; assay: Percentage growth inhibition of in vitro subpanel tumor cell lines, colon cancer; conditions: Homo sapiens; HCT-15 (Colon Cancer), 0.01 mM; read-out: Percentage growth inhibition (GI %)
Method: as §1, §2

[10] = test system: SF-295; assay: Percentage growth inhibition of in vitro subpanel tumor cell lines, CNS cancer; conditions: Homo sapiens; SF-295 (CNS Cancer), 0.01 mM; read-out: Percentage growth inhibition (GI %)
Method: as §1, §2

[11] = test system: SNB-75; assay: as above; conditions: Homo sapiens; SNB-75 (CNS Cancer), 0.01 mM; read-out: Percentage growth inhibition (GI %)
Method: as §1, §2

[12] = test system: LOX IMVI; assay: Percentage growth inhibition of in vitro subpanel tumor cell lines, melanoma; conditions: Homo sapiens, 0.01 mM, read-out: Percentage growth inhibition (GI %)
Method: as §1, §2

[13] = test system: MDA-MB-435; assay: as above; conditions: Homo sapiens; MDA-MB-435 (Melanoma), 0.01 mM; read-out: Percentage growth inhibition (GI %)
Method: as §1, §2

[14] = test system: SK-MEL-5; assay: as above; conditions: Homo sapiens; SK-MEL-5 (Melanoma), 0.01 mM; read-out: Percentage growth inhibition (GI %)
Method: as §1, §2

[15] = test system: OVCAR-4; assay: Percentage growth inhibition of in vitro subpanel tumor cell lines, ovarian cancer; conditions: Homo sapiens; OVCAR-4 (Ovarian Cancer), 0.01 mM; read-out: Percentage growth inhibition (GI %)
Method: as §1, §2

[16] = test system: A498; assay: Percentage growth inhibition of in vitro subpanel tumor cell lines, renal cancer; conditions: Homo sapiens, 0.01 mM, read-out: Percentage growth inhibition (GI %)
Method: as §1, §2

[17] = test system: CAKI-1; assay: as above; conditions: Homo sapiens; CAKI-1 (Renal Cancer), 0.01 mM; read-out: Percentage growth inhibition (GI %)
Method: as §1, §2

[18] = test system: UO-31; assay: as above; conditions: Homo sapiens; UO-31 (Renal Cancer), 0.01 mM; read-out: Percentage growth inhibition (GI %)
Method: as §1, §2

[19] = test system: PC-3; assay: Percentage growth inhibition of in vitro subpanel tumor cell lines, prostate cancer; conditions: Homo sapiens; PC-3 (Prostate Cancer), 0.01 mM; read-out: Percentage growth inhibition (GI %)
Method: as §1, §2

[20] = test system: HS 578T; assay: Percentage growth inhibition of in vitro subpanel tumor cell lines, breast cancer; conditions: Homo sapiens; HS 578T (Breast Cancer), 0.01 mM; read-out: Percentage growth inhibition (GI %)
Method: as §1, §2

[21] = test system: MCF7; assay: as above; conditions: Homo sapiens, 0.01 mM, read-out: Percentage growth inhibition (GI %)
Method: as §1, §2

[22] = test system: tumor cell lines; assay: Anticancer activity against tumor cell lines (panel, overall statement); conditions: some tumor cell lines, 0.01 mM concentration
Method: as §1, §2

Structure (SMILES): COc1ccc(-c2nc(-c3ccccc3)c(-c3ccccc3)n2CC(=O)N/N=C/c2ccc(C(=O)O)cc2)cc1 [AE21, 4-((2-(2-(2-(4-Methoxyphenyl)-4,5-diphenyl-1H-imidazol-1-yl)acetyl)hydrazono)methyl)benzoic acid]
- inhibition at 10 µM [1]: 2.61%
- inhibition at 10 µM [2]: 4.6%
- inhibition at 10 µM [3]: 0.34%
- inhibition at 10 µM [4]: 10.3%
- inhibition at 10 µM [5]: 6.62%
- inhibition at 10 µM [6]: 4.19%
- inhibition at 10 µM [7]: 0.85%
- inhibition at 10 µM [8]: 12.4%
- inhibition at 10 µM [9]: 3.82%
- inhibition at 10 µM [10]: 5.54%
- inhibition at 10 µM [11]: 18.9%
- inhibition at 10 µM [12]: 5.6%
- inhibition at 10 µM [13]: 9.17%
- inhibition at 10 µM [14]: 1.29%
- inhibition at 10 µM [15]: 13.7%
- inhibition at 10 µM [16]: 13.5%
- inhibition at 10 µM [17]: 6.23%
- inhibition at 10 µM [18]: 0.61%
- inhibition at 10 µM [19]: 2.68%
- inhibition at 10 µM [20]: 18.6%
- inhibition at 10 µM [21]: 13.4%
- anticancer activity [22]: moderate efficiency
